Entries after “also recorded” stand apart in the source; their conditions may differ. Where two headings read alike, the source gives them in different places. Blank lines part the entries; values can stand above or below the molecule they belong to.
Key:
CYP2C19 = CYP2C19 (Homo sapiens (Human), UniProt P33261); test: Extracellular cytochrome P450 inhibition (microsomes); format: in vitro ADME; conditions: mephenytoin 4′-hydroxylation
Source text: Final solvent concentrations were 1% (v/v) or less.

[1] = Thermodynamic aqueous solubility by HPLC; format: physicochemical; conditions: water, 25° C.
Protocol: The suspension was equilibrated at 25° C. for 24 hours then the pH was measured. The suspension was then filtered through a glass fibre C filter into a 96 well plate. […] Quantitation was by HPLC with reference to a standard solution of approximately 0.1 mg.ml^−1 in DMSO. Different volumes of the standard, diluted and undiluted sample solutions were injected.
Analysis was performed on an Agilent HP1100 series system equipped with a diode array detector and using ChemStation software vB.02.01-SR1.

[2] = Physical and chemical stability of polymorphs (storage, humidity chamber); format: physicochemical; conditions: for XRPD pattern after one week stability study: 40° C. and 75% RH, one week in humidity chamber
[3] = Gravimetric vapour sorption (GVS); format: physicochemical; conditions: for XRPD pattern after the GVS experiment: after full sorption/desorption cycle; for water adsorbed (GVS): at 90% RH
Protocol: Sorption isotherms were obtained using a Hiden IGASorp moisture sorption analyser, controlled by CFRSorp software. The sample temperature was maintained at 25° C. by a Huber re-circulating water bath. The humidity was controlled by mixing streams of dry and wet nitrogen, with a total flow rate of 250 ml. min^−1. The relative humidity was measured by a calibrated Vaisala RH probe (dynamic range of 0-95% RH), located near the sample. The weight change, (mass relaxation) of the sample as a function of % RH was constantly monitored by the microbalance (accuracy ±0.001 mg).
Typically 10-20 mg of sample was placed in a tared mesh stainless steel basket under ambient conditions. The sample was loaded and unloaded at 40% RH and 25° C. (typical room conditions).
A moisture sorption isotherm was performed as outlined below (2 scans giving 1 complete cycle). The standard isotherm was performed at 25° C. at 10% RH intervals over a 0-90% RH range.
The software uses a least squares minimisation procedure together with a model of the mass relaxation, to predict an asymptotic value. The measured mass relaxation value must be within 5% of that predicted by the software, before the next % RH value is selected. The minimum equilibration time was set to 1 hour and the maximum to 4 hours.

[4] = Oral dosing of amorphous phase A and Form C in rats; format: in vivo
[5] = test system: whole blood ionophore-stimulated leukotriene LTB4; test: Phase I study: ex vivo ionophore-stimulated LTB4; format: in vivo, human; conditions: in vivo
Source text: Study Design: Single center, double-blind, randomized, placebo-controlled, single ascending dose followed by multiple ascending dose study.
Sample Size: (1) Single Dose Phase: eight (8) subjects (6 active, 2 placebo) per dose level; up to 5 dose levels are planned (a total of 40 subjects if all 5 dose levels are completed); and (2) Multiple Dose Phase: eight (8) subjects (6 active, 2 placebo) per dose level; up to 4 dose levels are planned (a total of 32 subjects if all 4 dose levels are completed).
Formulations: Compound 2 was supplied as an oral powder for reconstitution. Placebo solution matched. […] The placebo differed only in the absence of the active.
The following dosing cohorts were used:
Routes of Administration: All doses were administered orally with approximately 100 mL of water rinse. Subjects were fasted for at least 8 hours prior to dosing and for 2 hours after dosing. For BID dosing in the Multiple Dose Phase, when applicable, subjects were fasted for at least 2 hours prior to the second daily dose.
Plasma concentrations of Compound 1 were determined using a validated LC/MS method. Whole blood ionophore-stimulated leukotriene LTB4 and urinary LTE4 production were assayed by ELISA and mass spectrometry, respectively.
Analysis of Samples: Concentrations of Compound 1 was determined in plasma samples collected from subjects. Similarly, concentrations of LTB4 in plasma and urinary LTE4 were determined in blood and urine samples collected.

[6] = Liquid formulations for oral solutions/suspensions; format: physicochemical; conditions: below pH values of about 9-10
Protocol: Values of pH reported were estimated based on pH indicating strips. […] Accordingly, provided in certain embodiments herein were formulations having a pH above about 9, above about 10 or of about 10. In certain embodiments, the formulation was buffered at a pH of about 10. All formulations prepared were sonicated for about 10 minutes.

[7] = female, CD-1, mouse, in vivo, po, 250 mg/kg/day, 4 days
Protocol: Twenty-four hours following the final drug administration mice were placed into an enclosed Plexiglas chamber and exposed to CO2 for a period of 30-60 seconds or until breathing ceased. They were then removed subject to cervical dislocation and blood taken via a cardiac puncture. Mice were next placed in a supine position and a midline incision made. All organs were inspected and the livers removed by careful dissection. Liver weights were recorded as well as any gross abnormalities.

Sequence of CYP2C19 (P33261 whole entry): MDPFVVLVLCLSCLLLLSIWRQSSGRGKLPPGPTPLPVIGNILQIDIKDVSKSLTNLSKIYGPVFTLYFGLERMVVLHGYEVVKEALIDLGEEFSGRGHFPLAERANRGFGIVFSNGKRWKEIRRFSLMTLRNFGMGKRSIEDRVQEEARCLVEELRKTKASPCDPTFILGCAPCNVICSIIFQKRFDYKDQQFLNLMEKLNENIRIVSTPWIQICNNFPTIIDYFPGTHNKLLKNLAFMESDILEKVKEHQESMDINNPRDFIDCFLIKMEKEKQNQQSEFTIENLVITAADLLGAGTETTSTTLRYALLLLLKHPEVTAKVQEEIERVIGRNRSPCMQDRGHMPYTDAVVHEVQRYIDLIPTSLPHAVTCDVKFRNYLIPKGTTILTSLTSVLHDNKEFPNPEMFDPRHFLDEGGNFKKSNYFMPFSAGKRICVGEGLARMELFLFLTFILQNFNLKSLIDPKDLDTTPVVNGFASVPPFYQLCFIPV

SMILES: CCC1(c2ccccc2)C(=O)NC(=O)N(Cc2ccccc2)C1=O (single isomer, unassigned; (-)) [(−)-N-3-benzyl-phenobarbital, reference compound]
IC50 (CYP2C19): 2800 nM

SMILES: CCOc1ccc(-c2ccc(Cn3c(CC(C)(C)C(=O)[O-])c(SC(C)(C)C)c4cc(OCc5ccc(C)cn5)ccc43)cc2)cn1.[Na+] [Amorphous Phase A, sodium 3-[3-(tert-butylsulfanyl)-1-[4-(6-ethoxy-pyridin-3-yl)benzyl]-5-(5-methyl-pyridin-2-yl-methoxy)-1H-indol-2-yl]-2,2-dimethylpropionate]
Concentration of filtrate ([1]; 24 hours): >10 mg/mL of free base
Appearance of mixture after equilibration for 24 hours ([1]; listed as Compound 2 Phase A): Suspension
pH of unfiltered saturated solution ([1]; listed as Compound 2 Phase A): 9.14
XRPD pattern after one week stability study [2]: remains amorphous
physical and chemical stability ([2]; listed as Amphorous Phase A): chemically stable
hygroscopicity [3]: hygroscopic
XRPD pattern after the GVS experiment [3]: No changes were observed
water adsorbed (GVS) [3]: more than 22%
water adsorbed (GVS) ([3]; listed as Amphorous Phase A): more than 20%
hygroscopicity ([3]; listed as Amphorous Phase A): hygroscopic
plasma exposures after oral dosing [4]: equivalent plasma exposures

SMILES: CCOc1ccc(-c2ccc(Cn3c(CC(C)(C)C(=O)[O-])c(SC(C)(C)C)c4cc(OCc5ccc(C)cn5)ccc43)cc2)cn1.[Na+] [Solvated Form B, sodium 3-[3-(tert-butylsulfanyl)-1-[4-(6-ethoxy-pyridin-3-yl)benzyl]-5-(5-methyl-pyridin-2-yl-methoxy)-1H-indol-2-yl]-2,2-dimethylpropionate]
physical and chemical stability [2]: physically and chemically stable
hygroscopicity [3]: hygroscopic
XRPD pattern after the GVS experiment ([3]; listed as Polymorph Form B): becomes almost totally amorphous
water adsorbed (GVS) [3]: more than 30%
water adsorbed (GVS) ([3]; listed as Polymorph Form B): more than 30%
hygroscopicity ([3]; listed as Polymorph Form B): hygroscopic

More lines, main results first:

solubility in certain solvent systems [6]: sparingly soluble
SMILES: CCOc1ccc(-c2ccc(Cn3c(CC(C)(C)C(=O)O)c(SC(C)(C)C)c4cc(OCc5ccc(C)cn5)ccc43)cc2)cn1 [Compound 1, 3-[3-(tert-butylsulfanyl)-1-[4-(6-ethoxy-pyridin-3-yl)benzyl]-5-(5-methyl-pyridin-2-yl-methoxy)-1H-indol-2-yl]-2,2-dimethylpropanoic acid]
plasma concentration at complete inhibition of ionophore-stimulated LTB4 production [5]: 1000 to 1500 ng/mL

physical and chemical stability [2]: physically and chemically stable
physical and chemical stability ([2]; 5° C., 25° C./60% RH and 40° C./75% RH for at least one month): physically and chemically stable
XRPD pattern after one week stability study ([2]; listed as polymorph Form C): remains unchanged
XRPD pattern after the GVS experiment ([3]; listed as polymorph Form C): No changes were observed
water adsorbed (GVS) [3]: < 9%
water adsorbed (GVS) ([3]; listed as polymorph Form C): 8.2%
plasma exposures after oral dosing [4]: equivalent plasma exposures
SMILES: CCOc1ccc(-c2ccc(Cn3c(CC(C)(C)C(=O)[O-])c(SC(C)(C)C)c4cc(OCc5ccc(C)cn5)ccc43)cc2)cn1.[Na+] [Form C, sodium 3-[3-(tert-butylsulfanyl)-1-[4-(6-ethoxy-pyridin-3-yl)benzyl]-5-(5-methyl-pyridin-2-yl-methoxy)-1H-indol-2-yl]-2,2-dimethylpropionate]
hygroscopicity [3]: non-hygroscopic; also recorded: nonhygroscopic
hygroscopicity ([3]; listed as polymorph Form C): significantly less hygroscopic than the amorphous material

Liver weight [7]: 1.6 ± 0.2
liver weight change as compared to vehicle control [7]: 31.0%
SMILES: CC(c1cc2ccccc2s1)N(O)C(N)=O (centres unmarked) [Zileuton, zileuton, reference compound]
Liver weight (% body weight) [7]: 5.5 % body weight
